Experimental findings from US5430154A, “2-(4-piperidinyl)-1H-pyrido[4,3-b]-indol-1-ones and related compounds” (Hoechst-Roussel Pharmaceuticals Inc., priority 1993, dated 1995) are described below.

What is called ED50 is the dose that gives a 50% effect, or the effect in half of the subjects.

Where two headings read alike, the source gives them in different places.

In experiment [1] the test system is apomorphine-induced climbing. The experiment in a line: climbing mice assay (antagonism of apomorphine-induced climbing; antipsychotic activity). The settings on record: Mus musculus, ip, read-out: Antipsychotic Activity ED50. The class given is in vivo, CK-1 male mice. As for the experimental part: The subject CK-1 male mice (23-27 grams) are group-housed under standard laboratory conditions. The mice are individually placed in wire mesh stick cages (4"×4" by 10") and are allowed one hour for adaptation and exploration of the new environment. […] For evaluation of climbing, 3 readings are taken at 10, 20 and 30 minutes after apomorphine administration according to the following scale: Mice consistently climbing before the injection of apormorphine are discarded. With full-developed apomorphine climbing, the animals are hanging onto the cage wails, rather motionless, over longer periods of time. By contrast, climbs due to mere motor stimulation usually only last a few seconds. The climbing scores are individually totaled (maximal score; 6 per mouse over 3 readings) and the total score of the control group (vehicle intraperitioneally-apomorphine subcutaneously) is set to 100%.

The subject of experiment [2] is apomorphine-induced stereotypy. The experiment is described as follows: antagonism of apomorphine-induced stereotypy. It is filed as in vivo, male Wistar rats. The settings on record: apomorphine 1.5 mg/kg s.c., rats. As for the experimental part: Antagonism of apomorphine-induced stereotypy is a property of many antipsychotics. […] Antagonism of apomorphine-induced stereotypy of the present 2-(4-piperidinyl)-1H-pyrido[4,3-b]indol-1-ones is determined by methods similar to those described by N. E. Anden, et al., J. Pharma.
Drugs are prepared using distilled water and, if insoluble, a suitable surfactant is added. The route of administration may be varied and the dosage volume is 10 ml/kg. For a primary screen, a group size of six is used. Drug is administered one hour prior to scoring and the animals are placed in individual clear plastic cages (24×14×13 cm). The control group receives vehicle. Apomorphine hydrochloride solution is prepared at a concentration of 1.5 mg/10 ml in a 0.03% ascorbic acid stock solution (30 mg of ascorbic acid in 100 ml of 1% saline) to increase the stability of the apomorphine hydrochloride while in solution. […] Fifty minutes after drug dosing, stereotypic behavior is noted. Stereotypic activity is defined as sniffing, licking or chewing behavior that occurs in a repetitive manner and is rated as follows: Constant sniffing, licking or chewing without interruption; the animal is considered protected if this behavior is interrupted.
The percent effectiveness of a drug is determined by the number of animals protected in each group.
A dose-response is run in the same manner as a primary screen except that a group size of 10 is used and the animals are dosed in a randomized manner. One group receives vehicle. ED50 for stereotypy are calculated by means of probit analysis.

[3] abbreviates: 30 min before apomorphine 1.5 mg/kg s.c., mice, linear regression.

As to `Cl.Cn1c2c(c3ccccc31)C(=O)N(C1CCN(Cc3ccccc3)CC1)CC2` [5-Methyl-2-[1-(phenylmethyl)-4-piperidinyl]-2,3,4,5-tetrahydro-1H-pyrido[4,3-b]-indole-1-one hydrochloride], in experiment [1] (setting [3]), the ED50 was 4.6 mg/kg. Further, in experiment [2] (dose 24 mg/kg ip), the “% Inhibition of Apomorphine-Induced Stereotypy” value (from here on “% Inhibition”) is given as 50%.

For `CSc1ccc2c(c1)N(CCC1CCCCN1C)c1ccccc1S2` (stereo not drawn) [thioridazine], in experiment [1] (setting [3]), the ED50 came to 3.6 mg/kg. In addition, the “% Inhibition” value in experiment [2] (dose 38 mg/kg ip) was found to be 50%.

In the case of `O=C(CCCN1CCC(O)(c2ccc(Cl)cc2)CC1)c1ccc(F)cc1` [haloperidol], the ED50 in experiment [1] turned out to be 0.14 mg/kg. Also, the “% Inhibition” value in experiment [2] (dose 0.2 mg/kg ip) is listed as 50%.
